Experiment in all cases: in vitro kinase activity assay
Assay type in all cases: biochemical

The target in one test is BMPR1B (Homo sapiens, UniProt O00238).
Another test addresses T1, TGFBR1 (Homo sapiens, UniProt P36897).
T1 sequence (P36897 34-503): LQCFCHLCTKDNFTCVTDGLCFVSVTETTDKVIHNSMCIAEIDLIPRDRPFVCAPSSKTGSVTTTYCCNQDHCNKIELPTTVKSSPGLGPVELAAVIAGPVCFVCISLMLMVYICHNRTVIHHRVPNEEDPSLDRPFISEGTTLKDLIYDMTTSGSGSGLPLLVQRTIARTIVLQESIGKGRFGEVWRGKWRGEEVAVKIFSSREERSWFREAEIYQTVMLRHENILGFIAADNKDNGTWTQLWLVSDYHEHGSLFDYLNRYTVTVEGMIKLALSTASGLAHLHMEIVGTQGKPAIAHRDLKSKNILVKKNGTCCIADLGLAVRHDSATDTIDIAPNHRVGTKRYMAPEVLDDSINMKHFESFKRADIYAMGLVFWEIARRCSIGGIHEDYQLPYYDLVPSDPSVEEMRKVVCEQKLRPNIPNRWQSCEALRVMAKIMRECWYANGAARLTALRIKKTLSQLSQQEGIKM

The next test has as its target T2, BMPR2 (Homo sapiens, UniProt Q13873).
T2 sequence (Q13873 27-1038): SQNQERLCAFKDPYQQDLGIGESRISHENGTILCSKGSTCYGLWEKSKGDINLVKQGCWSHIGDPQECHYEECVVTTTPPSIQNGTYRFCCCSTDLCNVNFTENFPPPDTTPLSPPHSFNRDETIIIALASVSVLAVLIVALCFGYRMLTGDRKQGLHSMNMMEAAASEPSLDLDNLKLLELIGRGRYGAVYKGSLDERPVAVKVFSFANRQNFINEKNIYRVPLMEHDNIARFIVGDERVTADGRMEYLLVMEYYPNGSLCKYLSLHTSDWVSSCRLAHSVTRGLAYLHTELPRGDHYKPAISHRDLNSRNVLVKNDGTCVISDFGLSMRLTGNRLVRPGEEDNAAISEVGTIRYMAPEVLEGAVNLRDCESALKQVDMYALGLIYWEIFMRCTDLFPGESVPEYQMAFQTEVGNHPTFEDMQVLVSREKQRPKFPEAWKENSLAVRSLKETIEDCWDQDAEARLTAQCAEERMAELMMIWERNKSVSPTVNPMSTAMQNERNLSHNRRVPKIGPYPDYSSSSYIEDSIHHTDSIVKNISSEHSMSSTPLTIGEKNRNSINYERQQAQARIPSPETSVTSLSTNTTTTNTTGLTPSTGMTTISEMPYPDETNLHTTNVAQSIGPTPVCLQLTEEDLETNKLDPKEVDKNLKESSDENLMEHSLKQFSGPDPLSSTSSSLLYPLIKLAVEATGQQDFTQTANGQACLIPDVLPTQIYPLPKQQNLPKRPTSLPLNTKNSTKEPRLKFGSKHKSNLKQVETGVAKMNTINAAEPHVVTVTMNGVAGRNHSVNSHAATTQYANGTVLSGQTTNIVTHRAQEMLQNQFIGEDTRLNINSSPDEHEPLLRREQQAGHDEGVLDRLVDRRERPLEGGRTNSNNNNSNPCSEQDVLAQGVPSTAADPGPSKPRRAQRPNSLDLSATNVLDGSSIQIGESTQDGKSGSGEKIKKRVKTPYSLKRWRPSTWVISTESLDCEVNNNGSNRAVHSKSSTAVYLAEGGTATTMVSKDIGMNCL

Another test addresses BMPR1A (Homo sapiens, UniProt P36894).

Chain of BMPR1B (O00238 14-502): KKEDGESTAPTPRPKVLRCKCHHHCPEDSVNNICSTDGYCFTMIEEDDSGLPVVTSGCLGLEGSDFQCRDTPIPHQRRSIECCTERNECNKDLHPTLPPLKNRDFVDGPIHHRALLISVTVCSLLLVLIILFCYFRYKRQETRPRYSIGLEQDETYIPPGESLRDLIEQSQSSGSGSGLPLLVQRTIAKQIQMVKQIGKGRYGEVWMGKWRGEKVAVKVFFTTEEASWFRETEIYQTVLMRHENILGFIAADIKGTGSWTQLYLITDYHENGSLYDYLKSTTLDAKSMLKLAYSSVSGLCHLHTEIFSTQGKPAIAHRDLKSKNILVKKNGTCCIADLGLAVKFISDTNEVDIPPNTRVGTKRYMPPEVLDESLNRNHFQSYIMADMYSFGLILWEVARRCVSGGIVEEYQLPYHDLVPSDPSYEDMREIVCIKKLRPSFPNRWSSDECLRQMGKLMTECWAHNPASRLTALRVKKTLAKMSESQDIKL
Chain of BMPR1A (P36894 24-532): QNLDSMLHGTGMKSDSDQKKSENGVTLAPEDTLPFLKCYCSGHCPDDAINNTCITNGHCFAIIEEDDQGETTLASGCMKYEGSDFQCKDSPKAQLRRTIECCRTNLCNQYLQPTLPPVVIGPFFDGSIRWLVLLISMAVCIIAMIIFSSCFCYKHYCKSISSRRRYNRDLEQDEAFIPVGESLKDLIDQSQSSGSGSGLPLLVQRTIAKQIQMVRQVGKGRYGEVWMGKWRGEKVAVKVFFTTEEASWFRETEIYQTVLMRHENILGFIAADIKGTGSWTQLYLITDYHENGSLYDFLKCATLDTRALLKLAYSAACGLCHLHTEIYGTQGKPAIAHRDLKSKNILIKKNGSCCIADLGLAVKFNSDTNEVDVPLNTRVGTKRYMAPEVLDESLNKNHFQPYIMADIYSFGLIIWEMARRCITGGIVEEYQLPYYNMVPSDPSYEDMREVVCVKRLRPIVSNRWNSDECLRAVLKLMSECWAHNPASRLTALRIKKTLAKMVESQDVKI

As for `O=C1Nc2ccc(O)cc2/C1=C\c1ccc(O)c(O)c1` [ZL170, (E)-3-(3,4-dihydroxybenzylidene)-5-hydroxyindolin-2-one], the IC50 against BMPR1B amounted to 1100 nM; on TGFBR1, 1040 nM; on BMPR2 it was 201 nM; on BMPR1A, 806 nM.
